Test results: patent US20230190844A1, “COMPOSITION AND METHOD FOR TREATING CANCER WITH CANNABINOIDS” (CANNABICS PHARMACEUTICALS INC., priority 2020, published 2023)

Assays:
RKO cells = experiment: CellTiter-Glo (CTG) cell viability, RKO
Method: (§1) The colon cancer cell lines RKO, and HCT116 were exposed to various cannabinoid combinations, at 37° C. for 48 h. The viability of the tested cells was examined. Further, synergism was evaluated using the Bliss equation.
(§2) CBDV and CBGA were tested at concentrations of 46.9 μM and 51.2 μM, respectively (shown as X2 in FIGS. 4A-4B). The effect of contacting each cannabinoid on the cells at half the concentration (i.e., 23.4 μM and 25.6 μM for CBDV and CBGA, respectively) was further tested (shown as X1 in FIGS. 4A-4B). Mixtures of CBDV and CBGA each at a X1 concentration were further prepared (“low concentration solutions”). The effect of the low concentration solution on the viability of the cancer cells was tested. The testing of the effect of each solution on the cancer cells was determined by incubating the cells with each cannabinoid solution as well as a standard (control) comprising DMSO only at 37° C. for 48 h and cell viability was measured by CTG viability assay using a Varioskan™ LUX multimode microplate reader.
(§3) FIGS. 7A-7B illustrate the human colon cell lines (HCT116 and RKO) that were incubated with CBGA at a concentration of 35 μM, CBDV at a concentration of 25 μM, Capecitabine at a concentration of 250 μM, and a combination thereof.

HCT116 cells = experiment: CellTiter-Glo (CTG) cell viability, HCT-116
Method: as §1, §2, §3

HT-29 colon cancer cells = experiment: CellTiter-Glo (CTG) cell viability, HT-29; assay type: cell-based, human; details: CBDV 23.5 μM, CBGA 25.6 μM, THC-d8 17.5 μM; 48 hours; FIGS. 1A-1B
Method: The colon cancer cell line HT-29 was exposed to each of CBDV (at a concentration of 23.5 μM) and CBGA (at a concentration of 25.6 μM) alone, and a combination thereof and to each of CBGA (at a concentration of 25.6 μM) and THC-d8 (at a concentration of 17.5 μM) alone, and a combination thereof at 37° C. for 48 hours. The viability of the tested cells was examined. The following Tables 4 and 5 illustrate the obtained results (shown also graphically at FIGS. 1A and 1B).

SK-CO1 cells = experiment: Cell viability at varying CBGA:CBDV ratios, SK-CO1; details: Homo sapiens, SK-CO-1, read-out: % Cells Viability
Method: (§5) Human colon cell lines (SC-CO1, RKO, and HCT116) and a murine cell line (CT26) were incubated with varying molar ratios between CBGA and CBDV of 1:3.5 to 8.5:1. Cells' viability and corresponding synergy rankings were determined.

[1] = tested on: MCF-7 breast cancer cells; experiment: CellTiter-Glo (CTG) cell viability, MCF-7; assay type: cell-based; details: CBDV 23.5 μM, CBGA 20 μM, CBDVA 17.5 μM, THC-d8 17.5 μM; 48 hours; FIGS. 3A-3B
Method: (§4) The breast cancer cell line MCF-7 was exposed to each of CBDV (at a concentration of 23.5 μM) and CBGA (at a concentration of 20 μM) alone, and to a combination thereof at 37° C. for 48 hours. The viability of the tested cells was examined. The following Table 8 illustrates the obtained results (shown also graphically in FIGS. 3A-3B).

A549 lung cancer cells = experiment: CellTiter-Glo (CTG) cell viability, A549; assay type: cell-based; details: CBDV 23.5 μM, CBGA 25.6 μM, CBDVA 25.6 μM, THC-d8 17.5 μM; 48 hours; FIGS. 2A-2B
Method: as §4, with “The lung” for “The breast”, “line A549” for “line MCF-7”, “of 25.6” for “of 20”, “and” for “and to”, “Table 6” for “Table 8”, “FIGS. 2A-2B).” for “FIGS. 3A-3B).”

CT26 cells = experiment: Cell viability at varying CBGA:CBDV ratios, CT26; details: Mus musculus, CT26, read-out: % Cells Viability
Method: as §5

[2] = tested on: cells of human colon cancer biopsy; experiment: Cell viability of human colon cancer biopsies; assay type: cell-based; details: CBDV 23.5 μM, CBG 20 μM, alone or combined
Method: The anti-tumor effect of combinations of cannabinoids CBCA, CBDV, CBDVA, THCV and CBGA on human colon cancer biopsies was tested. […] The obtained cell viability inhibition produced synergistic effects.
Table 18 illustrates (shown also graphically at FIG. 5A) the synergistic anti-tumor effect of a combination of the cannabinoids THCV (at a concentration of 24 μM) and CBCA (at a concentration of 14.5 μM) on colon cancer biopsies.
FIG. 6 illustrates graphically the combination of CBGA and CBDV on colon cancer biopsies taken from a patient. The concentration of each component was: CBGA (X2-51.2 μM), CBGA (X1-25.6 μM), CBDV (X2-47 μM), […].

[3] = Homo sapiens, RKO, read-out: % Cells Viability
[4] = Homo sapiens, HCT-116, read-out: % Cells Viability

SMILES	growth inhibition / anti-cancer effect in words (HT-29 colon cancer cells)	viability at 10 µM (RKO cells; [3]) [%]	viability at 15 µM (RKO cells; [3]) [%]	viability at 25 µM (RKO cells; [3]) [%]	viability at 30 µM (RKO cells; [3]) [%]	viability at 35 µM (RKO cells; [3]) [%]	viability at 10 µM (SK-CO1 cells) [%]	viability at 15 µM (SK-CO1 cells) [%]	viability at 25 µM (SK-CO1 cells) [%]	viability at 30 µM (SK-CO1 cells) [%]	viability at 35 µM (SK-CO1 cells) [%]	growth inhibition / anti-cancer effect in words [1]	viability at 10 µM (HCT116 cells; [4]) [%]	viability at 15 µM (HCT116 cells; [4]) [%]	viability at 25 µM (HCT116 cells; [4]) [%]	viability at 30 µM (HCT116 cells; [4]) [%]	viability at 35 µM (HCT116 cells; [4]) [%]	growth inhibition / anti-cancer effect in words (A549 lung cancer cells)	viability at 10 µM (CT26 cells) [%]	viability at 15 µM (CT26 cells) [%]	further results
CCCCCOC(=O)Nc1nc(=O)n([C@@H]2O[C@H](C)[C@@H](O)[C@H]2O)cc1F [Capecitabine, reference compound]	–	–	–	–	–	–	–	–	–	–	–	–	–	–	–	–	–	–	–	–	anti-cancer / toxicity effect on the cells in words (RKO cells; FIG. 7B, CBGA 35 μM, CBDV 25 μM, Capecitabine 250 μM): no toxicity effect; anti-cancer / toxicity effect on the cells in words (HCT116 cells; FIG. 7A, CBGA 35 μM, CBDV 25 μM, Capecitabine 250 μM): no toxicity effect
C=C(C)[C@H]1CCC(C)=C[C@@H]1c1c(O)cc(CCC)cc1O [CBDV, 2-((1S,6S)-3-methyl-6-(prop-1-en-2-yl)cyclohex-2-enyl)-5-propylbenzene-1,3-diol]	slight growth inhibition effect	108	88	62	53	48	103	99	99	97	96	slight growth inhibition effect	109	101	84	71	64	slight growth inhibition effect	109	113	viability at 23.4 µM (RKO cells; Homo sapiens, RKO, 48 h): 92%; viability at 46.9 µM (RKO cells; Homo sapiens, RKO, 48 h): 38%; viability at 5 µM (RKO cells; [3]): 112%; viability at 5 µM (SK-CO1 cells): 104%; viability at 23.4 µM (HCT116 cells; Homo sapiens, HCT-116, 48 h): 94%; viability at 46.9 µM (HCT116 cells; Homo sapiens, HCT-116, 48 h): 64%; viability at 5 µM (HCT116 cells; [4]): 113%; viability at 5 µM (CT26 cells): 108%; viability at 25 µM (CT26 cells): 108%; viability at 30 µM (CT26 cells): 99%; viability at 35 µM (CT26 cells): 90%
CCCCCc1cc(O)c(C/C=C(\C)CCC=C(C)C)c(O)c1 [CBG]	–	–	–	–	–	–	–	–	–	–	–	–	–	–	–	–	–	–	–	–	Viability [2]: 84
CCCCCc1cc(O)c(C/C=C(\C)CCC=C(C)C)c(O)c1C(=O)O [CBGA, 3-[(2E)-3,7-dimethylocta-2,6-dienyl]-2,4-dihydroxy-6-pentylbenzoic acid]	slight growth inhibition effect	119	119	94	75	59	108	110	101	91	76	slight growth inhibition effect	115	112	104	97	90	slight growth inhibition effect	102	102	viability at 25.6 µM (RKO cells; Homo sapiens, RKO, 48 h): 103%; viability at 51.2 µM (RKO cells; Homo sapiens, RKO, 48 h): 53%; viability at 42.5 µM (RKO cells; [3]): 41%; viability at 42.5 µM (SK-CO1 cells): 52%; viability at 25.6 µM (HCT116 cells; Homo sapiens, HCT-116, 48 h): 105%; viability at 51.2 µM (HCT116 cells; Homo sapiens, HCT-116, 48 h): 84%; viability at 42.5 µM (HCT116 cells; [4]): 72%; viability at 25 µM (CT26 cells): 46%; viability at 30 µM (CT26 cells): 22%; viability at 35 µM (CT26 cells): 21%; viability at 42.5 µM (CT26 cells): 11%
